For this experiment, the system named is L1210 leukemia ip in BDF1 mice, survival T/C. Nature of the experiment: NCI In Vivo Anticancer Drug Screen. Data for tumor model L1210 Leukemia (intraperitoneal) in B6D2F1 (BDF1) mice. The following applies: endpoint: mean survival time, higher = longer survival. Put shortly: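 Ratio derived from survival: compound-dosed mice over vehicle-dosed mice, all bearing a transplantable tumor.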

The mark [1] stands for this setting: dose: 25.0 mg/kg/injection, schedule: Q01DX001 (ip), vehicle: saline.
Setting [2] is: dose: 50.0 mg/kg/injection, schedule: Q01DX001 (ip), vehicle: saline.
Setting [3] is: dose: 100.0 mg/kg/injection, schedule: Q01DX001 (ip), vehicle: saline.
Setting [4] is: dose: 150.0 mg/kg/injection, schedule: Q01DX001 (ip), vehicle: saline.
Setting [5] is: dose: 200.0 mg/kg/injection, schedule: Q01DX001 (ip), vehicle: saline.
[6] abbreviates: dose: 400.0 mg/kg/injection, schedule: Q01DX001 (ip), vehicle: saline.
Where [7] appears, read: dose: 100.0 mg/kg/injection, schedule: Q04DX003 (ip), vehicle: Klucel (hydroxypropylcellulose) (HPC).
The mark [8] stands for this setting: dose: 200.0 mg/kg/injection, schedule: Q04DX003 (ip), vehicle: Klucel (hydroxypropylcellulose) (HPC).

The structures appear in SMILES notation. Values joined by “and” are separate entries in the source; they are usually repeats but may differ in a detail not shown here. Identical values can stand only once. Toxic doses and inconclusive results are not listed.

`COc1ccc2nc3cc(Cl)ccc3c(NCCC[N+](C)(C)CCCCCCCCCC[N+](C)(C)CCCNc3c4ccc(Cl)cc4nc4ccc(OC)cc34)c2c1`: the T/C is, setting by setting: (dose: 0.78 mg/kg/injection, schedule: Q01DX009 (ip), vehicle: saline with Tween-80) 102 % of control; (dose: 1.56 mg/kg/injection, schedule: Q01DX009 (ip), vehicle: saline with Tween-80) 94 % of control and 100 % of control; (dose: 3.13 mg/kg/injection, schedule: Q01DX009 (ip), vehicle: saline with Tween-80) 100 % of control and 101 % of control; (dose: 6.25 mg/kg/injection, schedule: Q01DX009 (ip), vehicle: saline with Tween-80) 106 % of control.
Consider `CC(CO)(C(=O)O)c1ccccc1` (stereo unspecified), for which the T/C was 103 % of control (dose: 55.0 mg/kg/injection, schedule: Q01DX Z (ip), vehicle: saline); 96 % of control (dose: 83.0 mg/kg/injection, schedule: Q01DX Z (ip), vehicle: saline); 94 % of control (dose: 125.0 mg/kg/injection, schedule: Q01DX Z (ip), vehicle: saline).
With `CNC(=O)OCCOC(=O)c1ccc(OC(=O)NC)cc1`, the T/C reads like this: (dose: 25.0 mg/kg/injection, schedule: Q01DX001 (ip), vehicle: carboxymethylcellulose (CMC)) 109 % of control; (dose: 25.0 mg/kg/injection, schedule: Q01DX001 (ip), vehicle: other) 96 % of control; under setting [1], 95 % of control; (dose: 45.0 mg/kg/injection, schedule: Q01DX001 (ip), vehicle: saline) 91 % of control; (dose: 50.0 mg/kg/injection, schedule: Q01DX001 (ip), vehicle: carboxymethylcellulose (CMC)) 93 % of control; (dose: 50.0 mg/kg/injection, schedule: Q01DX001 (ip), vehicle: other) 100 % of control. Moreover, the T/C reads like this: under setting [2], 96 % of control; (dose: 67.0 mg/kg/injection, schedule: Q01DX001 (ip), vehicle: saline) 100 % of control; (dose: 100.0 mg/kg/injection, schedule: Q01DX001 (ip), vehicle: carboxymethylcellulose (CMC)) 103 % of control and 92 % of control; (dose: 100.0 mg/kg/injection, schedule: Q01DX001 (ip), vehicle: other) 94 % of control; under setting [3], 95 % of control and 101 % of control and 202 % of control; under setting [4], 95 % of control. Further, the T/C was 97 % of control and 101 % of control (dose: 200.0 mg/kg/injection, schedule: Q01DX001 (ip), vehicle: carboxymethylcellulose (CMC)); 96 % of control (dose: 200.0 mg/kg/injection, schedule: Q01DX001 (ip), vehicle: other); 88 % of control and 90 % of control under setting [5]; 97 % of control (dose: 400.0 mg/kg/injection, schedule: Q01DX001 (ip), vehicle: carboxymethylcellulose (CMC)); 93 % of control and 90 % of control under setting [6].
As to `CC1CN1CCS(=O)(=O)CCN1CC1C` (stereo unspecified), the T/C is 95 % of control (dose: 0.3 mg/kg/injection, schedule: Q01DX015 (ip), vehicle: carboxymethylcellulose (CMC)); 101 % of control (dose: 0.6 mg/kg/injection, schedule: Q01DX015 (ip), vehicle: carboxymethylcellulose (CMC)); 109 % of control (dose: 1.2 mg/kg/injection, schedule: Q01DX015 (ip), vehicle: carboxymethylcellulose (CMC)); 101 % of control (dose: 1.25 mg/kg/injection, schedule: Q01DX015 (ip), vehicle: carboxymethylcellulose (CMC)); 103 % of control and 110 % of control (dose: 2.5 mg/kg/injection, schedule: Q01DX015 (ip), vehicle: carboxymethylcellulose (CMC)); 102 % of control (dose: 3.1 mg/kg/injection, schedule: Q01DX015 (ip), vehicle: saline). The T/C (dose: 4.6 mg/kg/injection, schedule: Q01DX015 (ip), vehicle: saline) was 102 % of control; the T/C (dose: 5.0 mg/kg/injection, schedule: Q01DX015 (ip), vehicle: carboxymethylcellulose (CMC)) was 101 % of control; the T/C (dose: 7.0 mg/kg/injection, schedule: Q01DX015 (ip), vehicle: saline) was 94 % of control; the T/C (dose: 10.0 mg/kg/injection, schedule: Q01DX015 (ip), vehicle: carboxymethylcellulose (CMC)) was 100 % of control and 112 % of control; the T/C (dose: 10.0 mg/kg/injection, schedule: Q01DX015 (ip), vehicle: saline) was 100 % of control; the T/C (dose: 20.0 mg/kg/injection, schedule: Q01DX015 (ip), vehicle: carboxymethylcellulose (CMC)) is 108 % of control. The T/C (dose: 40.0 mg/kg/injection, schedule: Q01DX015 (ip), vehicle: carboxymethylcellulose (CMC)) was 114 % of control.
On to `CC/C=C(/C)C(C#N)(C(=O)O)C(C)C` (stereo unspecified), for which the T/C is, setting by setting: (dose: 75.0 mg/kg/injection, schedule: Q01DX001 (ip), vehicle: saline) 98 % of control; under setting [4], 104 % of control; (dose: 300.0 mg/kg/injection, schedule: Q01DX001 (ip), vehicle: saline) 94 % of control.
With `COc1cccc2c1[nH]c1cc3ccncc3cc12`, the T/C was 107 % of control under setting [1]; 112 % of control under setting [2]; 98 % of control and 102 % of control under setting [3]; 95 % of control under setting [7]; 95 % of control under setting [8].
Turning to `O=C(O)c1cc(=O)c2cccc(Cl)c2[nH]1`, the T/C runs as follows: (dose: 50.0 mg/kg/injection, schedule: Q04DX002 (ip), vehicle: Klucel (hydroxypropylcellulose) (HPC)) 103 % of control; (dose: 100.0 mg/kg/injection, schedule: Q04DX002 (ip), vehicle: Klucel (hydroxypropylcellulose) (HPC)) 100 % of control; (dose: 200.0 mg/kg/injection, schedule: Q04DX002 (ip), vehicle: Klucel (hydroxypropylcellulose) (HPC)) 96 % of control.
In the case of `O=C(Nc1ccc(Nc2ccncc2)cc1)c1ccc([N+](=O)[O-])cc1`, the T/C reads like this: (dose: 100.0 mg/kg/injection, schedule: Q01DX009 (ip), vehicle: Klucel (hydroxypropylcellulose) (HPC)) 105 % of control; under setting [7], 103 % of control; (dose: 200.0 mg/kg/injection, schedule: Q01DX009 (ip), vehicle: Klucel (hydroxypropylcellulose) (HPC)) 92 % of control; under setting [8], 98 % of control; (dose: 400.0 mg/kg/injection, schedule: Q01DX009 (ip), vehicle: Klucel (hydroxypropylcellulose) (HPC)) 105 % of control; (dose: 400.0 mg/kg/injection, schedule: Q04DX003 (ip), vehicle: Klucel (hydroxypropylcellulose) (HPC)) 95 % of control.
Take `CN(C)S(=O)(=O)c1ccc(Nc2ccc(O)c3c2C(=O)c2c([N+](=O)[O-])ccc(O)c2C3=O)cc1`: the T/C was 98 % of control (dose: 75.0 mg/kg/injection, schedule: Q01DX001 (ip), vehicle: steriod suspending solution); 98 % of control (dose: 150.0 mg/kg/injection, schedule: Q01DX001 (ip), vehicle: steriod suspending solution); 100 % of control (dose: 300.0 mg/kg/injection, schedule: Q01DX001 (ip), vehicle: steriod suspending solution).
`CC(C)CN(CC(C)C)c1ccc([N+](=O)[O-])cc1[N+](=O)[O-]`: the T/C runs as follows: (dose: 100.0 mg/kg/injection, schedule: Q04DX003 (ip), vehicle: saline with Tween-80) 94 % of control; (dose: 200.0 mg/kg/injection, schedule: Q04DX003 (ip), vehicle: saline with Tween-80) 98 % of control; (dose: 400.0 mg/kg/injection, schedule: Q04DX003 (ip), vehicle: saline with Tween-80) 96 % of control.
For `CN(C)c1ccc(C=Nc2ccc(O)cc2)cc1`, the T/C under setting [3] is 88 % of control, the T/C under setting [5] was 94 % of control and the T/C under setting [6] is 96 % of control.
As to `O=C(OCCOCCN1CCCCC1)N1c2ccccc2Sc2cccnc21`, the T/C (dose: 5.0 mg/kg/injection, schedule: Q01DX001 (ip), vehicle: saline) was 104 % of control; the T/C (dose: 6.25 mg/kg/injection, schedule: Q01DX009 (ip), vehicle: saline) was 102 % of control; the T/C (dose: 10.0 mg/kg/injection, schedule: Q01DX001 (ip), vehicle: saline) was 101 % of control; the T/C (dose: 12.5 mg/kg/injection, schedule: Q01DX009 (ip), vehicle: saline) is 107 % of control; the T/C (dose: 20.0 mg/kg/injection, schedule: Q01DX001 (ip), vehicle: saline) is 98 % of control; the T/C (dose: 25.0 mg/kg/injection, schedule: Q01DX009 (ip), vehicle: saline) was 103 % of control. Besides, the T/C was 106 % of control (dose: 25.0 mg/kg/injection, schedule: Q04DX003 (ip), vehicle: saline); 101 % of control (dose: 40.0 mg/kg/injection, schedule: Q01DX001 (ip), vehicle: saline); 101 % of control (dose: 50.0 mg/kg/injection, schedule: Q01DX009 (ip), vehicle: saline); 111 % of control (dose: 50.0 mg/kg/injection, schedule: Q04DX003 (ip), vehicle: saline); 101 % of control (dose: 80.0 mg/kg/injection, schedule: Q01DX001 (ip), vehicle: saline); 98 % of control under setting [3]. Further, the T/C (dose: 100.0 mg/kg/injection, schedule: Q04DX003 (ip), vehicle: saline) was 106 % of control.
